In patent US6323001A, “Increasing the trehalose content of organisms by transforming them with combinations of the structural genes for trehalose synthase” (BTG International Ltd., priority 1994, dated 2001):

Biological target: T1, Tre6P synthase activity of truncated trehalose synthase (Saccharomyces cerevisiae, UniProt Q00764)
T1 construct: contained the 57 kDa short chain; made in house; host or cells: baker's yeast (native enzyme, proteolytically truncated during purification)
T1 sequence (Q00764 1-495): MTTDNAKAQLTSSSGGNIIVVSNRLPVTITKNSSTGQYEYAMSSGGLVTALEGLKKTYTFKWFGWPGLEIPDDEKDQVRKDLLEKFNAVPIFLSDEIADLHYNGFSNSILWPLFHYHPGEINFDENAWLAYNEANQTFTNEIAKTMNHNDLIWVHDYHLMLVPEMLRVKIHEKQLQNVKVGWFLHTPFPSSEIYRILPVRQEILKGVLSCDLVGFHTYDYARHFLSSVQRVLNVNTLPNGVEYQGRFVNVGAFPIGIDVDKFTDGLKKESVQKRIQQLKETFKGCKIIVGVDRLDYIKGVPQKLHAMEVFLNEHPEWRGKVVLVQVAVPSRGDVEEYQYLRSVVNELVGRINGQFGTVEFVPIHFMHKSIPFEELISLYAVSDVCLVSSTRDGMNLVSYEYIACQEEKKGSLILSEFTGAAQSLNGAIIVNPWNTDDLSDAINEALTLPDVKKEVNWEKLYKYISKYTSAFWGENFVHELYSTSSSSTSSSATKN
Assay: Tre6P synthase assay of truncated trehalose synthase
Assay type: biochemical, baker's yeast
Details: 10 mM G6P, 5 mM UDPG, 5 mM F6P, without phosphate = 100%
Procedure: With microbial materials, Tre6Pase and Tre6P synthase standard assays and other kinetic measurements were made as described by Londesborough & Vuorio [(1991) loc. cit.] except that the standard Tre6P synthase assay mixture contained 5 mM F6P unless stated otherwise.
Truncated trehalose synthase containing the short (57 kDa) chain and the 86 and 93 kDa long chain fragments was prepared according to the method of Londesborough & Vuorio (1991) loc. cit.] for proteolytically activated TPS/P complex. Tre6P synthase and Tre6Pase activities were assayed as described by Londesborough & Vuorio [(1991) loc. cit.]. [N-ethyl-1-^14C]-maleimide (ethyl-labelled NEM; 40 mCi/mmol) was NEC-454 from New England Nuclear. N-ethyl-[2,3-^14 C]-maleimide (ring-labelled NEM; 6 mCi/mmol) was CFA 293 from Amersham International. Both were obtained as solutions in n-pentane and the manufacturer's stated specific activities were assumed to be correct. Unlabelled N-ethyl-maleimide (NEM) was E-3876 from Sigma. It was dissolved in 25 mM HEPES pH 7.0 immediately before use and standardized by absorption measurements at 305 nm, assuming an E^mM of 0.62.
Truncated trehalose synthase was prepared as described by Londesborough & Vuorio [(1991) loc. cit.] and contained the 57 kDa short chain and 86 and 93 kDa fragments of the long chain. Intact trehalose synthase was prepared as in Example 1. Kinetic assays were done at 30° C. as described in General Methods and Materials.

In the case of `O=P(O)(O)O` [phosphate, K phosphate], the “Tre6P synthase activity, Truncated Enzyme” value (1.3 mM added K phosphate pH 6.8) is reported as 94% and the “Tre6P synthase activity, Truncated Enzyme” value (4.0 mM added K phosphate pH 6.8) is reported as 83%.
